Laboratory results as given in US20070049627A1, “Treating vulvodynia using prodrugs of GABA analogs” (priority 2005, published 2007).
Where two headings read alike, the source gives them in different places.

Assays:
[1] = Randomized, crossover, fed/fasted single-dose pharmacokinetic study of oral sustained release tablets of compound (3); assay type: in vivo, human; details: for AUC of compound (3) in blood as percent of corresponding AUC of gabapentin in blood / maximum intact compound (3) concentration as percent of corresponding peak gabapentin concentration: sustained release tablets oral
Description: A randomized, crossover, fed/fasted single-dose study of the safety, tolerability, and pharmacokinetics of oral administration of 1-{[(α-isobutanoyloxyethoxy)carbonyl]aminomethyl}-1-cyclohexane acetic acid (3) in healthy adult subjects was conducted. The oral sustained release dosage form of Example 6 was used in this study. The study was designed to evaluate the performance of this formulation in humans in comparison with the commercial gabapentin capsule formulation (Neurontin®, Pfizer). Twelve healthy adult volunteers (7 males and 5 females) participated in the study. Mean body weight was 75.6 kg. All subjects received two different treatments in a random order with a one-week washout between treatments. The two treatments were: (A) a single oral dose of Example 1 tablets (2×600 mg) after an overnight fast; and (B) a single oral dose of Example 1 tablets (2×600 mg) after a high fat breakfast.
Blood and plasma samples were collected from all subjects prior to dosing, and at 0.5, 1, 1.5, 2, 3, 4, 6, 8, 12, 18, 24, and 36 hours after dosing. Urine samples were collected from all subjects prior to dosing, and complete urine output was obtained at the 0-4 h, 4-8 h, 8-12 h, 12-18 h, 18-24 h, and 24-36 h intervals after dosing. Blood samples were quenched immediately with methanol and stored frozen at […]. Sample aliquots were prepared for analysis of gabapentin and compound (3) using sensitive and specific LC/MS/MS methods.

[2] = in vivo, po
[3] = typical value used for comparison; cited from earlier work
[4] = system: patients suffering from chronic vulvar pain; details: increasing amounts of gabapentin over 12 weeks, cited from earlier work
[5] = Tmax of immediate release formulations following oral administration; details: in vivo
[6] = sustained release tablets 2×600 mg oral, fasted subjects
[7] = sustained release tablets 2×600 mg oral, fed subjects

Compound | Cmax of gabapentin in blood ([1]; healthy adults, single oral dose sustained release tablets 2×600 mg, after a high fat breakfast) [µg/mL] | mean±SD Cmax for gabapentin in blood ([1]; healthy adults, single oral dose sustained release tablets 2×600 mg, fasted) [µg/mL] | AUC of gabapentin in blood ([1]; healthy adults, sustained release tablets 2×600 mg oral, after a high fat breakfast) [µg·h/mL] | mean±SD AUC for gabapentin in blood ([1]; healthy adults, sustained release tablets 2×600 mg oral, fasted) [µg·h/mL] | apparent terminal elimination half-life for gabapentin in blood [1, 6] [h] | gabapentin Tmax (time to peak blood levels) [1, 6] [h] | percent of the gabapentin dose recovered in urine [1, 6] [%] | apparent terminal elimination half-life for gabapentin in blood [1, 7] [h] | percent of the gabapentin dose recovered in urine [1, 7] [%] | increase of exposure to gabapentin in the presence of food compared to fasted subjects ([1]; sustained release tablets 2×600 mg oral, fed vs fasted) [%] | gabapentin Tmax (time to peak blood levels) ([1]; sustained release tablets 2×600 mg oral, in the presence of food) [h] | AUC of compound (3) in blood as percent of corresponding AUC of gabapentin in blood ([1]; fasted subjects) [%] | maximum intact compound (3) concentration as percent of corresponding peak gabapentin concentration ([1]; fasted subjects) | AUC of compound (3) in blood as percent of corresponding AUC of gabapentin in blood ([1]; fed subjects) [%] | maximum intact compound (3) concentration as percent of corresponding peak gabapentin concentration ([1]; fed subjects) | Tmax [2] [h] | typical Tmax of immediate release gabapentin [3] [h] | patients with partial or complete relief of vulvar pain symptoms ([4]; amitriptyline non-responders) | patients reporting side effects such as headaches, nausea, vomiting, fatigue, and dizziness [4] | Tmax [5] [h]
CC(OC(=O)NCC1(CC(=O)O)CCCCC1)OC(=O)C(C)C (stereo not drawn) [compound (3), 1-{[(α-Isobutanoyloxyethoxy)carbonyl]aminomethyl}-1-Cyclohexane Acetic Acid] | 6.24 ± 1.55 | 4.21 ± 1.15 | 83.0 ± 21.8 | 54.5 ± 12.2 | 6.47 ± 0.77 | 5.08 ± 1.62 | 46.5±15.8 | 5.38 ± 0.80 | 73.7±7.2 | 52 | 8.40 ± 2.07 | 0.3 | approximately 1.0% | < 0.1 | approximately 0.3% | 2 to 2.6 |  |  |  | 
NCC1(CC(=O)O)CCCCC1 [gabapentin] |  |  |  |  |  |  |  |  |  |  |  |  |  |  |  |  | 2 to 4 | Eighty-two | over half the patients | 2.8 to 3.3
